# Marks after values point to notes of the source that are not given here.
# What was measured:
# [1] = test system: Escherichia coli ATTC 8739; experiment: Microorganism count in 2% solutions of sodium salts (Example 19); format: cell-based; conditions: 2% solution, pH about 7, +37°C
# Procedure: (§1) Staphylococcus epidermidis 61540-51 and Escherichia coli ATTC 8739 were each added to a respective solution in a concentration of about 3000-10 000/ml. These samples were then incubated at +37°C for 20 hours. A microorganism count was carried out after 2 and 20 hours, in a manner described in microbiological literature. Parallel with the aforesaid tests, a control was run in pure phosphate buffer and in Tryptone soya broth (TSB) with additions of Staphylococcus epidermidis 61540-51 and Escherichia coli ATTC 8739 respectively, to ascertain the viability of the microorganisms to survive, i.e. the ability of the microorganisms to grow under the ideal conditions provided. After 2 hours, the number of organisms/ml of type Staphylococcus epidermidis in the phosphate solution was 4300 and after 20 hours 1. Growth could be established in TSB after 20 hours. […] This was also the case with the sodium salt of 2 percent 5-methyl-3-oxo-hexanoic acid ethyl ester. After 2 hours, the microorganism count of Escherichia coli in the phosphate solution was 3400, and after 20 hours 7400. Growth was established in TSB after 20 hours. In the solution containing 2% sodium salt of 4-methyl-3-oxo-pentanoic acid ethyl ester, the organism count was 2000 after 2 hours and 0 after 20 hours. With respect to the sodium salt of 5-methyl-3-oxo-hexanoic acid ethyl ester, the organism count was 44 after 2 hours and 0 after 20 hours.
# [2] = test system: Staphylococcus epidermidis 61540-51; experiment: as above; format: cell-based; conditions: 2% solution, pH about 7, +37°C
# Procedure: as §1
# [3] = Unspecified toxicity, intravenous injection in mice; format: in vivo; conditions: Example 22: 37 mg per mouse i.v.
# Procedure: Unspecified toxicity was tested on four mice by first weighing the animals, and then injecting the animals intravenously with 0.5 ml of an emulsion of 4-methyl-3-oxo-pentanoic acid having a concentration of 50 mg/ml for 10 minutes. Each mouse received a dosage of 25 mg. The emulsion was prepared aseptically, by emulsifying sterile-filtered ester with a sterilized dispersion of egg-yolk phospholipids. […] The increase in weight of the animals was normal during the observation period (weight increase: X=4.5 g, S.D. 0.5).
# The unspecific toxicity was tested on 5 mice by first weighing the animals, and then injecting intravenously 0.5 ml of an emulsion of 4-methy-3-oxo-pentanoic acid ethyl ester having a concentration of 5 mg/ml for 15 seconds. The emulsion was aseptically prepared, by emulsifying sterile-filtered ester with a sterilized dispersion of egg-yolk phospholipids. […] Each mouse received a total dosage of 2.5 mg.
# Unspecified toxicity was tested on four mice by first weighing the animals, and then injecting intravenously 0.2 ml of an emulsion of 4-methyl-3-oxo-pentanoic acid ethyl ester having a concentration of 33 mg/ml for 30 seconds. Each mouse received a dosage of 6.7 mg. The emulsion was prepared aseptically, by emulsifying sterile-filtered ester with a sterilized dispersion of egg-yolk phospholipids. […]
# E. coli = experiment: Microorganism count in emulsions diluted to 2% (Example 20, Table 2); format: cell-based; conditions: emulsion diluted to 2% with PBS pH=7.00, +37°C
# [4] = after 2 hours, inoculum about 3000-10 000/ml
Structure (SMILES),"organism count [1, 4]",organism count ([1]; after 20 hours),"number of organisms [2, 4]",number of organisms ([2]; after 20 hours),time after completing the injection until return to normal [3] [min],weight development over the following 7 days [3],number of microorganisms (E. coli; 0 hr),number of microorganisms (E. coli; 2 hrs),number of microorganisms (E. coli; 20 hrs)
CCOC(=O)CC(=O)C(C)C.[Na] [sodium salt of 4-methyl-3-oxo-pentanoic acid ethyl ester],2000,0,No organisms were found,No organisms were found,–,–,–,–,–
CCOC(=O)CC(=O)CC(C)C.[Na] [sodium salt of 5-methyl-3-oxo-hexanoic acid ethyl ester],44,0,No organisms were found,No organisms were found,1,normal weight development,–,–,–
CCOC(=O)C(=O)C(C)C [Ethyl-3-methyl-2-oxo-butyrate],–,–,–,–,–,–,0*,0,0
CCOC(=O)C(C)=O [Ethyl-pyruvate],–,–,–,–,–,–,0*,0,0

# Reference: EP0366632A1, “Alternative energy substrates” (priority 1988, dated 1990)
